Consider 14 compounds from patent US6229016A, “Method for treating tumors using 2-aryl-naphthyridin-4-ones” (priority 2000, dated 2001).

Molecules are shown by their SMILES.

The subject of test [1] is SK-MEL-5 melanoma cell line. Nature of the test: NCI in vitro screen, melanoma SK-MEL-5. The class given is cell-based. The conditions noted are these: Homo sapiens, read-out: Cytotoxicity log GI50 (converted). The source says: (§1) Compounds 41-51 and 53-68 were submitted to NCI and assayed in the NCI's in vitro disease-oriented antitumor screen, which involves determination of a test compound's effects on the growth of approximately 60 human tumor cell lines. See, M. R. Boyd, et al. In Cancer: Principles and Practice of Oncology Updates; De Vita, V. T., Hellman, S., Rosenberg, S. A., Eds; J. B. Lippincoft: Philadelphia, pp 1-12 (1989); and A. Monks, et al. J. Natl. Cancer Inst. 83:757 (1991). These lines include leukemia, non-small cell lung, colon, central nervous system (CNS), melanoma, ovarian, renal, prostate, and breast cancers.
(§2) Compounds 29'-51' were submitted to NCI and assayed in the NCI's in vitro disease-oriented antitumor screen, using the techniques described in Example 5. This assay involves determinations of a test agent's effect on growth parameters against a panel of approximately 60 human tumor cell lines, derived largely from solid tumors, including non-small cell lung, colon, central nervous system, renal, ovarian, prostate, and breast cancers, plus a few leukemia cell lines. The cytotoxic effects of each compound are obtained as GI50 or […] values, which represent the molar drug concentrations required to cause half growth inhibition and total growth inhibition, respectively. The results are expressed for each cell line as average log GI50 values in Table 4, as log GI50 values in Table 5, and as log TGI values and average log TGI values in Table 6.

Test [2] relates to MDA-N breast cancer cell line. Nature of the test: NCI in vitro screen, breast cancer MDA-N. The format is cell-based. To be noted: Homo sapiens, read-out: Cytotoxicity log GI50 (converted).
Text: as §1, §2

Test [3] concerns U-251 CNS cancer cell line. Nature of the test: NCI in vitro screen, CNS cancer U-251. The format is cell-based. The conditions noted are these: Homo sapiens, read-out: Cytotoxicity log GI50 (converted).
Test [4] deals with NCI's 60 human tumor cell line. Nature of the test: NCI 60 human tumor cell line in vitro screen (average / whole panel). The format is cell-based. To be noted: calculated from all cell lines tested, molar concentrations, read-out: average log GI50 (converted).
Test [5] deals with 786-0 renal cancer cell line. Nature of the test: NCI in vitro screen, renal cancer 786-0. The class given is cell-based. The conditions noted are these: Homo sapiens, read-out: Cytotoxicity log GI50 (converted).
Text: as §1, §2

Test [6] has as its system PC-3 prostate cancer cell line. In words: NCI in vitro screen, prostate cancer PC-3. The conditions noted are these: Homo sapiens, read-out: Cytotoxicity log GI50 (converted). The format is cell-based.
Text: as §1, §2

Test [7] has as its system NCI-H460 non-small cell lung cancer cell line. Nature of the test: NCI in vitro screen, non-small cell lung cancer NCI-H460. The format is cell-based. To be noted: Homo sapiens, read-out: Cytotoxicity log GI50 (converted).
For test [8], the system named is MDA-MB-435 breast cancer cell line. Nature of the test: NCI in vitro screen, breast cancer MDA-MB-435. The class given is cell-based. To be noted: Homo sapiens, read-out: Cytotoxicity log GI50 (converted).
In test [9] the test system is HL-60(TB) leukemia cell line. Nature of the test: cells. The class given is cell-based. To be noted: Homo sapiens; HL-60(TB); read-out: Cytotoxicity log GI50 (converted).
Test [10] has as its system OVCAR-3 ovarian cancer cell line. Nature of the test: NCI in vitro screen, ovarian cancer OVCAR-3. The format is cell-based. The conditions noted are these: Homo sapiens, read-out: Cytotoxicity log GI50 (converted).
In test [11] the test system is HCT-116 colon cancer cell line. In words: NCI in vitro screen, colon cancer HCT-116. The class given is cell-based. The conditions noted are these: Homo sapiens; HCT-1.16 (head); HCT-116 (footnote); read-out: Cytotoxicity log GI50 (converted).
In test [12] the test system is SF-295 CNS cancer cell line. Nature of the test: NCI in vitro screen, CNS cancer SF-295. The class given is cell-based. To be noted: Homo sapiens, read-out: Cytotoxicity log GI50 (converted).
The next test relates to tubulin. In words: Tubulin polymerization assay. The format is biochemical, bovine. To be noted: Tables 1 and 4; read-out: ITP HC50 ± SD (Inhibition of Tubulin Polymerization). The method, then:
Electrophoretically homogeneous bovine brain tubulin was purified as described in E. Hamel, et al. Biochemistry 23:4173 (1984).
The tubulin polymerization assay was performed as described in S. Kuo, et al. J. Med. Chem. 36:1146 (1993); L. Li, et al. J. Med. Chem. 37:1126 (1994); and L. Li J. Med. Chem. 37:3400 (1994). In brief, tubulin at 1.2 mg/ml (12 μM) was preincubated for 15 min at 26° C. in a 0.24-ml volume of 0.8 M monosodium glutamate (pH 6.6 with NaOH in a 2 M stock solution) with varying drug concentrations. The drug stock solutions were in DMSO, and the final solvent concentration was 4 % (v/v). All concentrations are in terms of the final reaction volume (0.25 ml). The reaction mixtures were chilled on ice, and 10 μl of 10 mM GTP was added to each reaction mixture. Samples were transferred to cuvettes held at 0° C. by an electronic temperature controller in Gilford spectrophotometers. Baselines were established at 350 nm, and polymerization initiated by a temperature jump to 26° C. The jump took about 50 sec to complete. After 20 min, turbidity readings were recorded, and the temperature controller was set to 0C. When depolymerization was complete, turbidity readings were again recorded. […] IC50 values were obtained graphically from inhibition of polymerization by different drug concentrations.
Electrophoretically, homogeneous bovine brain tubulin was purified as described in Example 6.
The tubulin polymerization assay was performed as described in Example 6.

`COc1cccc(-c2cc(=O)c3c(C)ccnc3[nH]2)c1` [Compound 45]: the GI50 in test [1] was 0.0224 µM; in test [2], less than 0.01 µM; in test [3] it was 0.0589 µM; in test [4], 0.0589 µM; in test [5] it was 0.0513 µM; in [6] it was 0.0263 µM. Also, the GI50 is 0.0479 µM in [7]; less than 0.01 µM in test [8]; 0.0129 µM in [9]; 0.0257 µM in test [10]; 0.0447 µM in test [11]; 0.0288 µM in test [12].
With `Cc1cc(C)c2c(n1)N=C(c1cccc3ccccc13)CC2=O` [Compound 46, 2-(α-Naphthyl)-5,7-dimethyl-1,8-naphthyridin-4-one], the GI50 in test [1] was 0.468 µM; in [2] it was 0.234 µM; in test [3], 0.372 µM; in test [4], 1.05 µM; in test [5], 9.55 µM; in [6], 0.759 µM. Besides, the GI50 in test [7] was 0.631 µM; in [8] it was 0.191 µM; in test [9], 0.245 µM; in test [10], 0.347 µM; in test [11], 0.38 µM; in test [12] it was 0.589 µM.
For `O=C1CC(c2ccc3ccccc3c2)=Nc2ncccc21` [Compound 47, 2-(β-Naphthyl)-1,8-naphthyridin-4-one], the GI50 in test [1] is 3.47 µM; in [2], 1.66 µM; in test [3] it was 4.37 µM; in test [4], 8.13 µM; in test [5] it was 5.62 µM; in test [6] it was 10.5 µM. Further, the GI50 in test [7] was 3.8 µM; in test [8] it was 1.78 µM; in [9], 1.82 µM; in test [10], 8.32 µM; in [11], 3.8 µM; in test [12], 9.12 µM.
On to `Cc1ccnc2c1C(=O)CC(c1ccc3ccccc3c1)=N2` [Compound 48, 2-(β-Naphthyl)-5-methyl-1,8-naphthyridin-4-one], for which the GI50 in test [1] is 0.437 µM; in test [2] it was 0.204 µM; in test [3], 0.646 µM; in test [4] it was 1.2 µM; in [5] it was 2.4 µM; in [6], 1.38 µM. Moreover, the GI50 in test [7] was 1.12 µM; in [8], 0.204 µM; in [9], 0.204 µM; in test [10], 1.29 µM; in test [11] it was 0.427 µM; in [12], 1.48 µM.
Regarding `COc1cccc(-c2cc(=O)c3c(C)cc(C)nc3[nH]2)c1` [Compound 48], the GI50 was 0.288 µM in [1]; less than 0.01 µM in test [2]; 0.17 µM in [3]; 0.646 µM in test [4]; 0.437 µM in test [5]; 0.309 µM in [6]. For the same compound, the GI50 in test [7] was 0.447 µM; in [8], less than 0.01 µM; in [9], 0.174 µM; in test [10], 0.251 µM; in test [11] it was 0.407 µM; in test [12] it was 0.417 µM.
Take `Cc1cnc2c(c1)C(=O)CC(c1ccc3ccccc3c1)=N2` [Compound 49, 2-(β-Naphthyl)-6-methyl-1,8-naphthyridin-4-one]: the GI50 in test [1] was 0.363 µM; in [2], 0.132 µM; in test [3], 0.468 µM; in test [4], 0.741 µM; in [5] it was 0.617 µM; in test [6], 0.407 µM. Further, the GI50 was 0.398 µM in test [7]; 0.105 µM in test [8]; 0.141 µM in test [9]; 0.355 µM in test [10]; 0.468 µM in test [11]; 0.55 µM in [12].
Turning to `Cc1ccc2c(n1)N=C(c1ccc3ccccc3c1)CC2=O` [Compound 50, 2-(β-Naphthyl)-7-methyl-1,8-naphthyridin-4-one], the GI50 is 3.31 µM in test [1]; 1.95 µM in [2]; 4.57 µM in [3]; 4.57 µM in test [4]; 5.37 µM in test [5]; 2.63 µM in test [6]. The GI50 was 3.8 µM in test [7]; 1.58 µM in test [8]; 1.78 µM in test [9]; 3.63 µM in test [10]; 3.98 µM in [11]; 3.8 µM in [12].
With `Cc1cc(C)c2c(=O)cc(-c3ccc4ccccc4c3)[nH]c2n1` [Compound 51, 2-(β-Naphthyl)-5,7-methyl-1,8-naphthyridin-4-one], the concentration for 50% growth inhibition (GI50) is 2.19 µM in [1]; 3.24 µM in test [2]; 15.8 µM in [3]; 13.5 µM in test [4]; 51.3 µM in test [5]; 5.5 µM in test [6]. The GI50 in [7] was 13.2 µM; in test [8] it was 2.95 µM; in test [9], 3.47 µM; in test [10], 20 µM; in test [11] it was 12.6 µM; in test [12], 14.8 µM.
For `COc1ccc(-c2cc(=O)c3cccnc3[nH]2)cc1` [Compound 51], the GI50 in test [1] is 34.7 µM; in [2], 20.9 µM; in test [3], 53.7 µM; in [4], 38 µM; in [5], 56.2 µM; in test [6], 31.6 µM. Also, the GI50 was 26.3 µM in [7]; 20 µM in [8]; 12.9 µM in test [9]; 30.2 µM in test [10]; 17.8 µM in test [11]; 64.6 µM in test [12].
Turning to `COc1ccc(-c2cc(=O)c3c(C)ccnc3[nH]2)cc1` [Compound 52], the GI50 in test [1] is 3.89 µM; in [2], 2.09 µM; in test [3], 6.31 µM; in test [4] it was 12.9 µM; in [5], 25.1 µM; in test [6] it was 18.2 µM. In addition, the GI50 in test [7] was 6.17 µM; in test [8], 2.4 µM; in [9], 4.37 µM; in [10], 13.8 µM; in [11] it was 6.46 µM; in test [12], 19.5 µM.
With `Cc1ccc(C2=Nc3nccc(C)c3C(=O)C2)cc1` [Compound 67, 2-(4'-Methylphenyl)-5-methyl-1,8-naphthyridin-4-one], in the test with tubulin, the IC50 was determined as 2.9 ± 0.7 µM.
Same read-out and setting: next, `Cc1ccc(C2=Nc3ncc(C)cc3C(=O)C2)cc1` [Compound 68, 2-(4'-Methylphenyl)-6-methyl-1,8-naphthyridin-4-one]: 2.4 ± 0.8 µM.
Still for that read-out and setting: with `Cc1ccc(C2=Nc3nc(C)ccc3C(=O)C2)cc1` [Compound 69, 2-(4'-Methylphenyl)-7-methyl-1,8-naphthyridin-4-one] the figure was 4.9 ± 0.2 µM.
As to `Cc1ccc(C2=Nc3nc(C)cc(C)c3C(=O)C2)cc1` [Compound 70, 2-(4'-Methylphenyl)-5,7-dimethyl-1,8-naphthyridin-4-one], the IC50 in the test on tubulin worked out at 9.8 ± 2 µM.

As usually defined, the GI50 is the concentration that inhibits growth by half.
